From ChEMBL document CHEMBL2010766, “Bivalent Ligands for the Serotonin 5-HT3 Receptor” (ACS Med Chem Lett, 2011) come the findings set out here.

The Ki is a dissociation constant, usually derived from enzyme kinetics or from competition with a known ligand. A lower Ki goes with a stronger hold on the target.

The assay addresses T1, 5-hydroxytryptamine receptor 3A (Rattus norvegicus, UniProt P35563).
T1 sequence (P35563 whole entry): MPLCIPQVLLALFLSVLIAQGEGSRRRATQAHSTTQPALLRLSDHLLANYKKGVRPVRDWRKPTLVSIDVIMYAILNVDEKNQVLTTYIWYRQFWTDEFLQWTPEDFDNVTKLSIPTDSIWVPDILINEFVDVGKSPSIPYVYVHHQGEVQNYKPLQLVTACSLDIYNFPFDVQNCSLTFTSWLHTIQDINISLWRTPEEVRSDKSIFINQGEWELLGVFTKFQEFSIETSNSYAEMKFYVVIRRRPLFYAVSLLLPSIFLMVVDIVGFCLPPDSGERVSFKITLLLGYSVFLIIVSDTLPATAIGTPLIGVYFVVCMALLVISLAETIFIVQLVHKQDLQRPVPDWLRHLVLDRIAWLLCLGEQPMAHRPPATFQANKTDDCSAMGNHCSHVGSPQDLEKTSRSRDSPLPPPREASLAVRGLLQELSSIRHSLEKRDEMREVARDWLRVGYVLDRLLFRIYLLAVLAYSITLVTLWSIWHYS
Nature of the assay: Displacement of [3H]granisetron from 5HT3 receptor in Wistar rat cortical membranes by liquid scintillation spectrometry. It is filed as cell membranes, Membrane.
As for `Cc1c(N2CCN(C)CC2)nc2ccccc2c1C(=O)NCCOCCOCCOCCOCCOCCOCCOCCNC(=O)OC(C)(C)C`, the affinity corresponds to a Ki of 89 nM. That is a double-digit nanomolar value. Molecule `Cc1c(N2CCN(C)CC2)nc2ccccc2c1C(=O)NCCOCCOCCOCCOCCOCCOCCOCCOCCOCCNC(=O)c1c(C)c(N2CCN(C)CC2)nc2ccccc12` displayed a Ki of 15 nM. This Ki lies about 5.9-fold lower than the previous one. The figure for `Cc1c(N2CCN(C)CC2)nc2ccccc2c1C(=O)NCCCCCCNc1c2c(nc3ccccc13)CCCC2` is 71 nM; for `Cc1c(N2CCN(C)CC2)nc2ccccc2c1C(=O)NCCCCCCCCNC(=O)OC(C)(C)C` it is 127 nM.

Regarding `Cc1c(N2CCN(C)CC2)nc2ccccc2c1C(=O)NCCOCCOCCOCCOCCOCCOCCOCCOCCOCCNC(=O)OC(C)(C)C`, the Ki is 71 nM.

Molecule `Cc1c(N2CCN(C)CC2)nc2ccccc2c1C(=O)NCCCCCCCNc1c2c(nc3ccccc13)CCCC2` registered a Ki of 5.6 nM. Molecule `Cc1c(N2CCN(C)CC2)nc2ccccc2c1C(=O)NCCOCCOCCOCCOCCOCCOCCOCCNC(=O)c1c(C)c(N2CCN(C)CC2)nc2ccccc12` registered a Ki of 27 nM. The figure for `Cc1c(N2CCN(C)CC2)nc2ccccc2c1C(=O)NCCOCCOCCNC(=O)c1c(C)c(N2CCN(C)CC2)nc2ccccc12` is 7.7 nM.

`Cc1c(N2CCN(C)CC2)nc2ccccc2c1C(=O)NCCCCCCCNC(=O)c1c(C)c(N2CCN(C)CC2)nc2ccccc12` had a Ki of 2.7 nM. The figure for `Cc1c(N2CCN(C)CC2)nc2ccccc2c1C(=O)NCCCCCCCNC(=O)NC[13C](=O)O` is 26 nM. Molecule `Cc1c(N2CCN(C)CC2)nc2ccccc2c1C(=O)NCCCCCCCCNC(=O)c1c(C)c(N2CCN(C)CC2)nc2ccccc12` had a Ki of 67 nM. Molecule `Cc1c(N2CCN(C)CC2)nc2ccccc2c1C(=O)NCCCCCCNC(=O)OC(C)(C)C` showed a Ki of 178 nM. For `Cc1c(N2CCN(C)CC2)nc2ccccc2c1C(=O)NCCCCCCNC(=O)c1c(C)c(N2CCN(C)CC2)nc2ccccc12`, affinity was put at a Ki of 28 nM. `Cc1c(N2CCN(C)CC2)nc2ccccc2c1C(=O)NCCOCCOCCNC(=O)NC[13C](=O)O` showed a Ki of 141 nM. This Ki is about 5-fold higher than that of the molecule before.

In turn, `Cc1c(N2CCN(C)CC2)nc2ccccc2c1C(=O)NCCCCCCCCNc1c2c(nc3ccccc13)CCCC2` had a Ki of 69 nM. Molecule `Cc1c(N2CCN(C)CC2)nc2ccccc2c1C(=O)NCCOCCOCCOCCOCCOCCOCCOCCNC(=O)NC[13C](=O)O` gave a Ki of 106 nM. Turning to `Cc1c(N2CCN(C)CC2)nc2ccccc2c1C(=O)NCCOCCOCCOCCOCCOCCOCCOCCOCCOCCNC(=O)NC[13C](=O)O`, the Ki worked out at 154 nM. This Ki and that of the molecule before are within 1.5-fold of each other. `Cc1c(N2CCN(C)CC2)nc2ccccc2c1C(=O)NCCOCCOCCNC(=O)OC(C)(C)C` returned a Ki of 132 nM. `Cc1c(N2CCN(C)CC2)nc2ccccc2c1C(=O)NCCCCCCCNC(=O)OC(C)(C)C`: the Ki was determined as 18 nM.
